In US11173151B2, “Substituted triazole derivatives and uses thereof” (BAYER AKTIENGESELLSCHAFT, priority 2017, dated 2021):
Read-outs that look alike come from different tables or passages of the source.

Experiments:
human V2 receptor = target: T1, human V2 receptor (Homo sapiens, UniProt P30518); experiment: Cellular in vitro assay for determining vasopressin receptor activity, V2 receptor cell line (CHO, CRE-luciferase); format: cell-based; conditions: CHO cell line transfected with human V2 receptor, [Arg8]-vasopressin at EC50 concentration, read-out: IC50 hV2
T1 construct: expressed in transfected cells; host or cells: CHO K1 (ATCC) expressing firefly luciferase under a CRE-responsive promoter

human V1a receptor = target: T2, human V1a receptor (Homo sapiens, UniProt P37288); experiment: Cellular in vitro assay for determining vasopressin receptor activity, V1a receptor cell line (CHO, aequorin luminescence); format: cell-based; conditions: for IC50: CHO cell line transfected with human V1a receptor, [Arg]-vasopressin at EC50 concentration, read-out: IC50 hV1a; for ratio IC50 hV2/hV1a: selectivity ratio IC50 hV2 / IC50 hV1a
T2 construct: expressed in transfected cells; host or cells: CHO K1 (ATCC), also stably transfected with a modified aequorin
Procedure, shortened: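 Cells were plated the day before in medium containing 5 μg/ml coelenterazine and kept at 37° C. Compounds at various concentrations were then added for 10 minutes. Next, [Arg]-vasopressin at EC50 was applied and light output recorded at once, yielding IC50.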

T1 sequence (P30518 whole entry): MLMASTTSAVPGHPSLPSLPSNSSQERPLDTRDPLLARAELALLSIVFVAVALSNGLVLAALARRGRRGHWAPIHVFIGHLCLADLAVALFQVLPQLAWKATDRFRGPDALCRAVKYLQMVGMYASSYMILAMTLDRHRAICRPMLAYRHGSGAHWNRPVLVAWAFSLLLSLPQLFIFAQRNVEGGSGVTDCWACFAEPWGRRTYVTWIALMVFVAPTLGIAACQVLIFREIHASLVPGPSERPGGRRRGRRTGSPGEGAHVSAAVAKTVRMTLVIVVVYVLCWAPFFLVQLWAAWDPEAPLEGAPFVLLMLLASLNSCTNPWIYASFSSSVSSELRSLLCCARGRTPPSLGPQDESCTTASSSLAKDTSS
T2 sequence (P37288 whole entry): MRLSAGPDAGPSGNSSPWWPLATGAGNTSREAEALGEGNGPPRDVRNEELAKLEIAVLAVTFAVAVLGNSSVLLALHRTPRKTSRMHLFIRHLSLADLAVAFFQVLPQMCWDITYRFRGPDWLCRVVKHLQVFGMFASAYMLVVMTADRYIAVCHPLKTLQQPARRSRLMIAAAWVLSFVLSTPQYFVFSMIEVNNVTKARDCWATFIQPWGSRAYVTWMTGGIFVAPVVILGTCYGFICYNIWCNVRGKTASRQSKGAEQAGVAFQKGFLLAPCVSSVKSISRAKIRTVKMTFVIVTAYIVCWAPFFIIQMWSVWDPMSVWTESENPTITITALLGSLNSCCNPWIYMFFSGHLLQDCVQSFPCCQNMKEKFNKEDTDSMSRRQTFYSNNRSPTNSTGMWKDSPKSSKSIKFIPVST

Row | Compound | IC50 (human V2 receptor) [nM] | IC50 (human V1a receptor) [nM] | ratio IC50 hV2/hV1a (human V1a receptor) | IC50 (human V2 receptor; 3 hours) [nM]
1 | COCC1CCCN1C(=O)c1ccncc1-n1nc(Cn2nc(-c3ccc(Cl)cc3)n(C[C@H](O)C(F)(F)F)c2=O)nc1C(=O)NCC(C)(C)N (mixture of isomers) [Example 536, N-(2-amino-2-methylpropyl)-3-({3-(4-chlorophenyl)-5-oxo-4-[(2S)-3,3,3-trifluoro-2-hydroxypropyl]-4,5-dihydro-1H-1,2,4-triazol-1-yl}methyl)-1-(4-{[2-(methoxymethyl)pyrrolidin-1-yl]carbonyl}pyridin-3-yl)-1H-1,2,4-triazol-5-carboxamide] | 83300 | 280 | 297.6 | –
2 | O=C(Nc1cccnc1-n1cnc(Cn2nc(-c3ccc(Cl)cc3)n(C[C@H](O)C(F)(F)F)c2=O)n1)[C@@H]1C[C@@H]1C(F)(F)F (racemic) [Example 45, N-{2-[3-({3-(4-Chlorophenyl)-5-oxo-4-[(2S)-3,3,3-trifluoro-2-hydroxypropyl]-4,5-dihydro-1H-1,2,4-triazol-1-yl}methyl)-1H-1,2,4-triazol-1-yl]pyridin-3-yl}-2-(trifluoromethyl)cyclopropanecarboxamide] | – | 33 | 21.0 | 693
3 | O=C(Nc1ncccc1-n1cnc(Cn2nc(-c3ccc(Cl)cc3)n(C[C@H](O)C(F)(F)F)c2=O)n1)[C@@H]1C[C@@H]1C(F)(F)F (racemic) [Example 79, N-{3-[3-({3-(4-Chlorophenyl)-5-oxo-4-[(2S)-3,3,3-trifluoro-2-hydroxypropyl]-4,5-dihydro-1H-1,2,4-triazol-1-yl}methyl)-1H-1,2,4-triazol-1-yl]pyridin-2-yl}-2-(trifluoromethyl)cyclopropanecarboxamide] | – | 102 | 102.9 | 10500
4 | O=C(N[C@H]1C[C@H]1F)c1cccc(Cl)c1-n1cnc(Cn2nc(-c3ccc(Cl)cc3)n(C[C@@H](O)C(F)(F)F)c2=O)n1 (racemic) [Example 397, 3-Chloro-2-[3-({3-(4-chlorophenyl)-5-oxo-4-[(2R)-3,3,3-trifluoro-2-hydroxypropyl]-4,5-dihydro-1H-1,2,4-triazol-1-yl}methyl)-1H-1,2,4-triazol-1-yl]-N-[2-fluorocyclopropyl]benzamide] | – | 72 | 96.5 | 6950
5 | O=C(N[C@@H]1C[C@@H]1F)c1cccc(C(F)(F)F)c1-n1cnc(Cn2nc(-c3ccc(Cl)cc3)n(C[C@H](O)C(F)(F)F)c2=O)n1 (racemic) [Example 413, 2-[3-({3-(4-Chlorophenyl)-5-oxo-4-[(2S)-3,3,3-trifluoro-2-hydroxypropyl]-4,5-dihydro-1H-1,2,4-triazol-1-yl}methyl)-1H-1,2,4-triazol-1-yl]-N-[2-fluorocyclopropyl]-3-(trifluoromethyl)benzamide] | 2050 | 34.5 | 59.4 | –
6 | O=C(N[C@H]1C[C@@H]1F)c1cccc(C(F)(F)F)c1-n1cnc(Cn2nc(-c3ccc(Cl)cc3)n(C[C@H](O)C(F)(F)F)c2=O)n1 (racemic) [Example 422, 2-[3-({3-(4-Chlorophenyl)-5-oxo-4-[(2S)-3,3,3-trifluoro-2-hydroxypropyl]-4,5-dihydro-1H-1,2,4-triazol-1-yl}methyl)-1H-1,2,4-triazol-1-yl]-N-[2-fluorocyclopropyl]-3-(trifluoromethyl)benzamide] | 2800 | 30 | 93.3 | –
7 | O=C(N[C@H]1C[C@H]1F)c1ncccc1-n1cnc(Cn2nc(-c3ccc(Cl)cc3)n(C[C@H](O)C(F)(F)F)c2=O)n1 (racemic) [Example 435, 3-[3-({3-(4-Chlorophenyl)-5-oxo-4-[(2S)-3,3,3-trifluoro-2-hydroxypropyl]-4,5-dihydro-1H-1,2,4-triazol-1-yl}methyl)-1H-1,2,4-triazol-1-yl]-N-[2-fluorocyclopropyl]pyridine-2-carboxamide] | 1060 | 24.5 | 43.5 | –
8 | O=C1CN(c2nc(Cn3nc(-c4ccc(Cl)cc4)n(C[C@H](O)C(F)(F)F)c3=O)nn2-c2cccnc2C(=O)N[C@H]2C[C@@H]2F)CCN1 (racemic) [Example 507, 3-[3-({3-(4-Chlorophenyl)-5-oxo-4-[(2S)-3,3,3-trifluoro-2-hydroxypropyl]-4,5-dihydro-1H-1,2,4-triazol-1-yl}methyl)-5-(3-oxopiperazin-1-yl)-1H-1,2,4-triazol-1-yl]-N-[2-fluorocyclopropyl]pyridine-2-carboxamide] | 32000 | 4500 | 7.1 | –
9 | O=C1CN(c2nc(Cn3nc(-c4ccc(Cl)cc4)n(C[C@H](O)C(F)(F)F)c3=O)nn2-c2cccnc2C(=O)N[C@@H]2C[C@@H]2F)CCN1 (racemic) [Example 508, 3-[3-({3-(4-Chlorophenyl)-5-oxo-4-[(2S)-3,3,3-trifluoro-2-hydroxypropyl]-4,5-dihydro-1H-1,2,4-triazol-1-yl}methyl)-5-(3-oxopiperazin-1-yl)-1H-1,2,4-triazol-1-yl]-N-[2-fluorocyclopropyl]pyridine-2-carboxamide] | 23500 | 5150 | 4.6 | –
10 | O=C1CN(C(=O)c2nc(Cn3nc(-c4ccc(Cl)cc4)n(C[C@H](O)C(F)(F)F)c3=O)nn2-c2cnccc2C(=O)N[C@H]2C[C@H]2F)CCN1 (racemic) [Example 517, 3-{3-({3-(4-Chlorophenyl)-5-oxo-4-[(2S)-3,3,3-trifluoro-2-hydroxypropyl]-4,5-dihydro-1H-1,2,4-triazol-1-yl}methyl)-5-[(3-oxopiperazin-1-yl)carbonyl]-1H-1,2,4-triazol-1-yl}-N-[2-fluorocyclopropyl]pyridine-4-carboxamide] | 1840 | 490 | 3.8 | –
11 | O=C(N[C@H]1C[C@H]1F)c1ccncc1-n1nc(Cn2nc(-c3ccc(Cl)cc3)n(C[C@H](O)C(F)(F)F)c2=O)nc1C(=O)N1CCS(=O)(=O)CC1 (racemic) [Example 523, 3-{3-({3-(4-Chlorophenyl)-5-oxo-4-[(2S)-3,3,3-trifluoro-2-hydroxypropyl]-4,5-dihydro-1H-1,2,4-triazol-1-yl}methyl)-5-[(1,1-dioxidothiomorpholin-4-yl)carbonyl]-1H-1,2,4-triazol-1-yl}-N-[2-fluorocyclopropyl]pyridine-4-carboxamide] | 1100 | 365 | 3.0 | –
12 | O=C1CN(C(=O)c2nc(Cn3nc(-c4ccc(Cl)cc4)n(C[C@H](O)C(F)(F)F)c3=O)nn2-c2ncccc2C(=O)N[C@H]2C[C@H]2F)CCN1 (racemic) [Example 527, 2-{3-({3-(4-chlorophenyl)-5-oxo-4-[(2S)-3,3,3-trifluoro-2-hydroxypropyl]-4,5-dihydro-1H-1,2,4-triazol-1-yl}methyl)-5-[(3-oxopiperazin-1-yl)carbonyl]-1H-1,2,4-triazol-1-yl}-N-[2-fluorocyclopropyl]pyridine-3-carboxamide] | 1530 | 1080 | 1.4 | –

These reach a lower IC50 (human V1a receptor). Values come first.

Row | IC50 (human V2 receptor) [nM] | IC50 (human V1a receptor) [nM] | ratio IC50 hV2/hV1a (human V1a receptor) | IC50 (human V2 receptor; 3 hours) [nM] | Compound
13 | 785 | 12 | 65.4 | – | O=C(N[C@H]1C[C@H]1F)c1ncccc1-n1cnc(Cn2nc(-c3ccc(Cl)cc3)n(C[C@H](O)C(F)(F)F)c2=O)n1 (racemic) [Example 456, 3-[3-({3-(4-Chlorophenyl)-5-oxo-4-[(2S)-3,3,3-trifluoro-2-hydroxypropyl]-4,5-dihydro-1H-1,2,4-triazol-1-yl}methyl)-1H-1,2,4-triazol-1-yl]-N-[2-fluorocyclopropyl]pyridine-2-carboxamide]
14 | – | 9.95 | 321.6 | 3200 | O=C(Nc1ncccc1-n1cnc(Cn2nc(-c3ccc(Cl)cc3)n(C[C@H](O)C(F)(F)F)c2=O)n1)[C@H]1C[C@@H]1F (racemic) [Example 84, N-{3-[3-({3-(4-Chlorophenyl)-5-oxo-4-[(2S)-3,3,3-trifluoro-2-hydroxypropyl]-4,5-dihydro-1H-1,2,4-triazol-1-yl}methyl)-1H-1,2,4-triazol-1-yl]pyridin-2-yl}-2-fluorocyclopropanecarboxamide]
15 | – | 6.45 | 362.4 | 2340 | O=C(Nc1ncccc1-n1cnc(Cn2nc(-c3ccc(Cl)cc3)n(C[C@H](O)C(F)(F)F)c2=O)n1)[C@@H]1C[C@@H]1F (racemic) [Example 76, N-{3-[3-({3-(4-Chlorophenyl)-5-oxo-4-[(2S)-3,3,3-trifluoro-2-hydroxypropyl]-4,5-dihydro-1H-1,2,4-triazol-1-yl}methyl)-1H-1,2,4-triazol-1-yl]pyridin-2-yl}-2-fluorocyclopropanecarboxamide]
16 | 155 | 3.1 | 50.0 | – | O=C(N[C@H]1C[C@H]1F)c1cccnc1-n1cnc(Cn2nc(-c3ccc(Cl)cc3)n(C[C@H](O)C(F)(F)F)c2=O)n1 (racemic) [Example 504, 2-[3-({3-(4-Chlorophenyl)-5-oxo-4-[(2S)-3,3,3-trifluoro-2-hydroxypropyl]-4,5-dihydro-1H-1,2,4-triazol-1-yl}methyl)-1H-1,2,4-triazol-1-yl]-N-[2-fluorocyclopropyl]pyridine-3-carboxamide]
17 | – | 2.65 | 315.1 | 835 | O=C(N[C@H]1C[C@H]1F)c1cccc(Cl)c1-n1cnc(Cn2nc(-c3ccc(Cl)cc3)n(C[C@H](O)C(F)(F)F)c2=O)n1 (racemic) [Example 389, 3-Chloro-2-[3-({3-(4-chlorophenyl)-5-oxo-4-[(2S)-3,3,3-trifluoro-2-hydroxypropyl]-4,5-dihydro-1H-1,2,4-triazol-1-yl}methyl)-1H-1,2,4-triazol-1-yl]-N-[2-fluorocyclopropyl]benzamide]
